Here are results for 22 compounds from patent US20170088520A1, “DEUBIQUITINASE INHIBITORS” (PharmAkea, Inc., priority 2014, published 2017).

What all share (assay type): cell-based
The subject of assay [1] is Mcl-1 expression in cells (NCI-H929, Z138, MM.1S, A-375). Briefly: Analysis of Mcl-1 expression by Western blotting. The conditions noted are these: compound tested at 5 μM; Western blot. On the procedure: (§1) Example B-2: Analysis of Md-1 Expression and PARP Cleavage
(§2) The ability of test compounds to decrease expression of the tumor promoting protein, Mcl-1, and to induce the inactivation/cleavage of the PARP protein is evaluated in cells (NCI-H929, Z138, MM.1S, A-375) by Western blotting. Cells are plated and treated as described in the HA-Ub-VS cell labeling assay (see above). A portion of the cleared lysate (15-50 μl) is run on an SDS-polyacrylamide gel to separate proteins and then transferred to nitrocellulose. After transfer to nitrocellulose, the proteins are detected by probing the blot with anti-Mcl-1 and anti-PARP antibodies followed by secondary antibodies coupled to IRdye 800 and IRdye 680 and visualization and quantitation using a LiCor Odyssey machine. Activity of the test compound is identified as a significant decrease in Mcl-1 expression relative to the vehicle treated cells and to the appearance of a cleaved fragment of PARP relative to the vehicle-treated cells.
(§3) The following compounds were tested in the above assays at 5 μM: […]

Assay [2] deals with T1, DUB activity in cells (NCI-H929, Z138, MM.1S, A375) (Homo sapiens, UniProt Q93008).
T1 construct: endogenous in cells; host or cells: NCI-H929, Z138, MM.1S, A375
T1 sequence (Q93008 whole entry): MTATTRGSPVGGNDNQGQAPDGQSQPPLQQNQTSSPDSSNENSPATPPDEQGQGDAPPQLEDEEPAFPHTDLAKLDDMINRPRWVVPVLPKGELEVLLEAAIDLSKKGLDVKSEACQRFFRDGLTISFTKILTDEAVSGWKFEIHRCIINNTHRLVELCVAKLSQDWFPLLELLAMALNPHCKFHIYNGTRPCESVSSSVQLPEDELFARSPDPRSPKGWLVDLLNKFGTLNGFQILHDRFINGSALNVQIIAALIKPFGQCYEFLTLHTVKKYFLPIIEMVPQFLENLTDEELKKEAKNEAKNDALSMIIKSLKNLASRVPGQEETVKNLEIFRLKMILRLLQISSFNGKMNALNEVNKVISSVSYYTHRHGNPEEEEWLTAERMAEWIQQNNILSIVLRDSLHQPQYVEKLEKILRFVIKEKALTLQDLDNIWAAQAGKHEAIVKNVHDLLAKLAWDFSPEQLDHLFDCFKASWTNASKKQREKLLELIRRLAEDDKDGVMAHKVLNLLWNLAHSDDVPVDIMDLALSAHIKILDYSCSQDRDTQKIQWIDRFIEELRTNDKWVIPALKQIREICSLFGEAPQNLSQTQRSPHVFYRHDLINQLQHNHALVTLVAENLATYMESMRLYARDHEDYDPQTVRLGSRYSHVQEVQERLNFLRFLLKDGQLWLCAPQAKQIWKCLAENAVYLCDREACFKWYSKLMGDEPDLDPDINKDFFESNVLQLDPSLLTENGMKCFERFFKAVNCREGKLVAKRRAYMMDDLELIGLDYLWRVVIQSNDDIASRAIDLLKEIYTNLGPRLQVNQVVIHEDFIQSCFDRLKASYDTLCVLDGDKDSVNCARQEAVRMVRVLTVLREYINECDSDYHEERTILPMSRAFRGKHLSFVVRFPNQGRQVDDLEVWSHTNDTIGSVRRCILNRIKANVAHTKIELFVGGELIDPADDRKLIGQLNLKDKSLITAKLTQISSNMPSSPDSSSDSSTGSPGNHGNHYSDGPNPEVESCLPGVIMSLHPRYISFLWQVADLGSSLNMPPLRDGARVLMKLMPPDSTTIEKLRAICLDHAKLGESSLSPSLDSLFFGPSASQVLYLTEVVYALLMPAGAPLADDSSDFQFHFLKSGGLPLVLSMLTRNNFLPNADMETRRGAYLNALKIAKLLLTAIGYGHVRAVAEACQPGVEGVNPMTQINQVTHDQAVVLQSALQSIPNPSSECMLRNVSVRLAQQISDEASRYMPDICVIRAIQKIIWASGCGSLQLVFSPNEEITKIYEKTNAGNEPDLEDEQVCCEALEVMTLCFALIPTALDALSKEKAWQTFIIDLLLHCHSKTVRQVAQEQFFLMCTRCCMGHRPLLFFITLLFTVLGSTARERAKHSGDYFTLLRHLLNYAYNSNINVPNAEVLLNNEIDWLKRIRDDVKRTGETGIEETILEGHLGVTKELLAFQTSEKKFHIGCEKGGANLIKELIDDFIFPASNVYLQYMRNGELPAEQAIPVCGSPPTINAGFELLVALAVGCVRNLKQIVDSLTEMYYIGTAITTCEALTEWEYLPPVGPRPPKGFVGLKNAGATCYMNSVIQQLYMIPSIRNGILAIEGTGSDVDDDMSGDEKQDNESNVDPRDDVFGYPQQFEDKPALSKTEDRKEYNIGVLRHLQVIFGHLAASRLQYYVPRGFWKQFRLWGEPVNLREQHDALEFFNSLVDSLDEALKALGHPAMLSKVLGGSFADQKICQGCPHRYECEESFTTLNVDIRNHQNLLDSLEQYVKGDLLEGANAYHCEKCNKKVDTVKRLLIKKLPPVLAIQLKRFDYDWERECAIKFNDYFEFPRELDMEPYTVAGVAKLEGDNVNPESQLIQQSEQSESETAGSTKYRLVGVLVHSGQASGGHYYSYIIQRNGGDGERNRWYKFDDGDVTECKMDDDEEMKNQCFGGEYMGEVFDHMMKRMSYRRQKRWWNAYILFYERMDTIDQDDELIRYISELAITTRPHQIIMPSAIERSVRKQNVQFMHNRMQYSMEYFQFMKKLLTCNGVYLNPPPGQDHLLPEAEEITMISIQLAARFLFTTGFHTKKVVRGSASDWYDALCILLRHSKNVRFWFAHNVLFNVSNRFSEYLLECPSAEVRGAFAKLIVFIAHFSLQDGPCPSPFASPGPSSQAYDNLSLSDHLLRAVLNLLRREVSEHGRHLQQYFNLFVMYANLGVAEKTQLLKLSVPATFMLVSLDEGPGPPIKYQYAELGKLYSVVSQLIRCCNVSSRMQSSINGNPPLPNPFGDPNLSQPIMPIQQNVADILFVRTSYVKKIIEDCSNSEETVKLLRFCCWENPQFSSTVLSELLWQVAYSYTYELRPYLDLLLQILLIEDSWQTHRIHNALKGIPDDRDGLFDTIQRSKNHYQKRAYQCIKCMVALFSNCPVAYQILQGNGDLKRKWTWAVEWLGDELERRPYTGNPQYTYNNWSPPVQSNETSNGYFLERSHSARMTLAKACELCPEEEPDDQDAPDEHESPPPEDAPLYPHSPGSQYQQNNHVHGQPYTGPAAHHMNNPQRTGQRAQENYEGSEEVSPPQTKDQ
Briefly: HA-Ubiquitin-Vinylsulfone (HA-Ub-VS) cell labeling assay. The note with it: compound tested at 5 μM; HA-Ub-VS labeling of USP9x in cells. The procedure: Example B-1: HA-Ubiqutin-Vinylsulfone (HA-Ub-VS) Cell Labeling
Inhibitition of DUB activity is measured in cells (NCI-H929, Z138, MM.1S, A375) using a hemaglutinin-ubiquitin-vinylsulfone (HA-Ub-VS) labeling assay. Briefly, 1-2×10^6 cells are plated in 12-well plates in 1 ml complete growth media and 250 μl of test compound in 0.5% dimethylsulfoxide (or DMSO control) is added to each well. Plates are incubated at 37° C., 5% CO2 for 2-6 hours before cells are harvested into eppendorf tubes, washed once in PBS and resuspended in 100 μl cold lysis buffer (50 mM Tris pH 8, 150 mM NaCl, 0.5% NP-40, 2 mM phenylmethylsulfonyl fluoride and complete protease inhibitor tablet). Resupended cells are frozen on dry ice, then thawed and incubated on ice for 15 minutes. Tubes are centrifuged for 10 minutes at 14,000 rpm at 4° C. and the cleared supernatants transferred to clean tubes. […] The samples are incubated 15-60 min at 37° C. before the addition of SDS gel loading buffer. Proteins are separated by SDS-PAGE, transferred to nitrocellulose and the blot probed with anti-HA antibody and anti-β-actin antibodies. The HA and β-actin antibodies are detected using secondary antibodies coupled to IRdye 800 or IRdye 680 and visualized and quantitated using the LiCor Odyssey machine.
as §3

The subject of assay [3] is PARP cleavage in cells (NCI-H929, Z138, MM.1S, A-375). Briefly: Analysis of PARP cleavage by Western blotting. The conditions noted are these: compound tested at 5 μM; Western blot. On the procedure:
as §1, §2, §3

As a reminder, the inhibition is the share of the control response that was lost under treatment.

With `COc1ccc(/C=C(\C#N)C(=O)NC2(c3ccccc3)CCCC2)cc1O` [Compound 14, (E)-3-(3-Hydroxy-4-methoxyphenyl)-2-cyano-N-(1-phenylcyclopentyl)acrylamide], the inhibition at 5 µM in assay [1] and in assay [2] was < 25% throughout. In addition, the “PARP cleavage % Inhibition” value in assay [3] is reported as “D (D is <25% inhibition)”.
On to `COC(=O)c1cncc(-c2cccc(/C=C(\C#N)C(=O)NC3(c4ccccc4)CCCC3)n2)c1` [Compound 33], for which the figures for the inhibition at 5 µM in assay [1] and in assay [2] were ≥ 75% and 50 to 75%, respectively. Also, in assay [3], the “PARP cleavage % Inhibition” value is recorded as “A (A is ≧75% inhibition)”.
The matching figures for `N#C/C(=C\c1cccc(Br)n1)C(=O)NC1(c2ccc(C#CCNCCO)cc2)CCCC1` [Compound 78, (E)-3-(6-bromopyridin-2-yl)-2-cyano-N-(1-(4-(3-((2-hydroxyethyl)amino)prop-1-yn-1-yl)phenyl)cyclopentyl)acrylamide]: < 25%, 50 to 75% and “B (B is 50% to 75% inhibition)”.
The matching figures for `N#C/C(=C\c1ncc(Br)cc1Br)C(=O)NC1(c2ccc(Cl)cc2)CCCC1` [Compound 22, (E)-N-(1-(4-Chlorophenyl)cyclopentyl)-2-cyano-3-(3,5-dibromopyridin-2-yl)acrylamide]: ≥ 75%, ≥ 75% and “A (A is ≧75% inhibition)”.
The matching figures for `N#C/C(=C\c1ncc(Br)cc1Br)C(=O)NC1(c2ccccc2)CCCC1` [Compound 4, (E)-3-(3,5-Dibromopyridin-2-yl)-2-cyano-N-(1-phenylcyclopentyl)acrylamide]: ≥ 75%, ≥ 75% and “A (A is ≧75% inhibition)”.
Regarding `Cc1cccc(C2(NC(=O)/C(C#N)=C/c3ncc(Br)cc3Br)CCCC2)c1` [Compound 26, (E)-2-cyano-3-(3,5-dibromopyridin-2-yl)-N-(1-(m-tolyl)cyclopentyl)acrylamide], the inhibition at 5 µM in assay [1] and in assay [2] was ≥ 75% throughout. Also, the “PARP cleavage % Inhibition” value in assay [3] was “A (A is ≧75% inhibition)”.
`N#C/C(=C\c1cccc(Br)n1)C(=O)NC1(c2ccccc2)CCC1` [Compound 3, (E)-3-(6-Bromopyridin-2-yl)-2-cyano-N-(1-phenylcyclobutyl)acrylamide]: the inhibition at 5 µM in assay [1] and in assay [2] was < 25% each time. Moreover, the “PARP cleavage % Inhibition” value in assay [3] is listed as “B (B is 50% to 75% inhibition)”.
As to `N#C/C(=C\c1cccc(-c2cccc(C(=O)O)c2F)n1)C(=O)NC1(c2ccccc2)CCCC1` [Compound 89, (E)-3-(6-(2-cyano-3-oxo-3-((1-phenylcyclopentyl)amino)prop-1-en-1-yl)pyridin-2-yl)-2-fluorobenzoic acid], the inhibition at 5 µM in assay [1] and in assay [2] was < 25% throughout. In assay [3], the “PARP cleavage % Inhibition” value is “C (C is 25% to 50% inhibition)”.
Consider `N#C/C(=C\c1cccc(Br)n1)C(=O)NC1(c2cccc(CO)c2)CCCC1` [Compound 81, (E)-3-(6-bromopyridin-2-yl)-2-cyano-N-(1-(3-(hydroxymethyl)phenyl)cyclopentyl)acrylamide], for which the inhibition at 5 µM lay in the range of 25 to 50% in assay [1] and 50 to 75% in assay [2]. In assay [3], the “PARP cleavage % Inhibition” value is listed as “A (A is ≧75% inhibition)”.
On to `N#C/C(=C\c1ncc(Cl)cc1F)C(=O)NC1(c2ccccc2)CCCC1` [Compound 5, (E)-3-(3-Fluoro-5-chloropyridin-2-yl)-2-cyano-N-(1-phenylcyclopentyl)acrylamide], for which the inhibition at 5 µM in assay [1] and in assay [2] was ≥ 75% each time. Also, in assay [3], the “PARP cleavage % Inhibition” value was “A (A is ≧75% inhibition)”.
Regarding `N#C/C(=C\c1cccc(Br)n1)C(=O)NC1(c2ccc(O)cc2)CCCC1` [Compound 79, (E)-3-(6-bromopyridin-2-yl)-2-cyano-N-(1-(4-hydroxyphenyl)cyclopentyl)acrylamide], the inhibition at 5 µM in assay [1] and in assay [2] was ≥ 75% each time. Moreover, the “PARP cleavage % Inhibition” value in assay [3] was “A (A is ≧75% inhibition)”.
With `N#C/C(=C\c1ccc(Br)cn1)C(=O)NC1(c2ccccc2)CCCC1` [Compound 29, (E)-3-(5-bromopyridin-2-yl)-2-cyano-N-(1-phenylcyclopentyl)acrylamide], the inhibition at 5 µM is < 25% in assay [1] and 50 to 75% in assay [2]. Further, the “PARP cleavage % Inhibition” value in assay [3] was “A (A is ≧75% inhibition)”.
Taken in the same sequence, the figures for `N#C/C(=C\c1nc(Cl)ccc1Cl)C(=O)NC1(c2ccccc2)CCCC1` [Compound 7, (E)-3-(3,6-Dichloropyridin-2-yl)-2-cyano-N-(1-phenylcyclopentyl)acrylamide] were ≥ 75%, 50 to 75% and “A (A is ≧75% inhibition)”.
The matching figures for `Cn1cc(-c2ccc(C3(NC(=O)/C(C#N)=C/c4ncc(Br)cc4Br)CCCC3)cc2)cn1` [Compound 77, (E)-2-cyano-3-(3,5-dibromopyridin-2-yl)-N-(1-(4-(1-methyl-1H-pyrazol-4-yl)phenyl)cyclopentyl)acrylamide]: 50 to 75%, 50 to 75% and “B (B is 50% to 75% inhibition)”.
The matching figures for `N#C/C(=C\c1ncc(Br)cc1Br)C(=O)NC1(c2ccccc2)CCOCC1` [Compound 24, (E)-2-Cyano-3-(3,5-dibromopyridin-2-yl)-N-(4-phenyltetrahydro-2H-pyran-4-yl)acrylamide]: 50 to 75%, ≥ 75% and “A (A is ≧75% inhibition)”.
With `COC(=O)c1cccc(-c2cccc(/C=C(\C#N)C(=O)NC3(c4ccccc4)CCCC3)n2)c1` [Compound 34], the inhibition at 5 µM was 25 to 50% in assay [1] and 50 to 75% in assay [2]. Further, the “PARP cleavage % Inhibition” value in assay [3] is on record as “A (A is ≧75% inhibition)”.
The matching figures for `N#C/C(=C\c1cccc(C#CC2(O)CCCC2)n1)C(=O)NC1(c2ccncc2)CCCC1` [Compound 3-5]: < 25%, < 25% and “D (D is <25% inhibition)”.
The matching figures for `N#C/C(=C\c1cccc(Br)n1)C(=O)NC1(c2ccccc2)CCOCC1` [Compound 18, (E)-3-(6-Bromopyridin-2-yl)-2-cyano-N-(4-phenyltetrahydro-2H-pyran-4-yl)acrylamide]: 25 to 50%, 50 to 75% and “B (B is 50% to 75% inhibition)”.
The matching figures for `N#C/C(=C\c1cccc(-c2ccc3[nH]ncc3c2)n1)C(=O)NC1(c2ccccc2)CCCC1` [Compound 70, (E)-3-(6-(1H-indazol-5-yl)pyridin-2-yl)-2-cyano-N-(1-phenylcyclopentyl) acrylamide]: ≥ 75%, 50 to 75% and “A (A is ≧75% inhibition)”.
For `N#C/C(=C\c1ccc(Cl)c(F)c1)C(=O)NC1(c2ccccc2)CCCC1` [Compound 12, (E)-3-(4-Chloro-3-fluorophenyl)-2-cyano-N-(1-phenylcyclopentyl)acrylamide], the inhibition at 5 µM is < 25% in assay [1] and 25 to 50% in assay [2]. For the same compound, in assay [3], the “PARP cleavage % Inhibition” value is on record as “C (C is 25% to 50% inhibition)”.
Taken in the same sequence, the figures for `N#C/C(=C\c1cccc(Br)n1)C(=O)NC1(c2ccc(-c3cccc(C(=O)NS(=O)(=O)c4ccccc4)c3)cc2)CCCC1` [Compound 94, (E)-4′-(1-(3-(6-bromopyridin-2-yl)-2-cyanoacrylamido)cyclopentyl)-N-(phenylsulfonyl)-[1,1′-biphenyl]-3-carboxamide] were 25 to 50%, < 25% and “A (A is ≧75% inhibition)”.
The matching figures for `N#C/C(=C\c1cccc(C#CCn2cccn2)n1)C(=O)NC1(c2ccncc2)CCCC1` [Compound 3-4, (E)-3-(6-(3-(1H-pyrazol-1-yl)prop-1-yn-1-yl)pyridin-2-yl)-2-cyano-N-(1-(pyridin-4-yl)cyclopentyl)acrylamide]: < 25%, < 25% and “B (B is 50% to 75% inhibition)”.
